Test results: PMC5460220, “Dual PI3K and Wnt pathway inhibition is a synergistic combination against triple negative breast cancer” (NPJ Breast Cancer, 2017)
Like-named read-outs stand apart in the source and are kept apart here.

What was measured:
[1] = system: TNBC patient-derived xenograft (PDX); experiment: TNBC PDX survival study; assay type: in vivo, NSG mice; conditions: n = 10 per group, once-a-day for a maximum of 28 days, buparlisib 30 mg/kg, WNT974 3 mg/kg
porcupine = system: porcupine; set-up: method as in PMID 24277854; conditions: recently published data; cited from earlier work
[2] = known; cited from earlier work
tumor growth = system: tumor growth; set-up: method as in PMID 24277854; conditions: recently published data; cited from earlier work
TMD-231 lung metastases = experiment: quantification of lung metastases, Ki67 staining; assay type: in vivo, NSG mice; conditions: TMD-231 xenograft, PD study lungs; combination p = 0.0196
Description: The TMD-231 cells used in our PD study have a known propensity to metastasize to the lung.[29] To assess the effect of the combination therapy on the growth of lung metastases, lung tissues from our PD study were stained and analyzed for metastatic burden. […] Lungs were extracted, fixed in 10% formalin, and processed in paraffin. Five-micrometer sections were H&E stained, deparaffinized, blocked, and stained using primary anti-human Ki67 antibody (DAKO, Carpinteria, California). The Aperio whole slide digital imaging system was used for imaging (Leica, Wetzlar, Germany). Using the Aperio ScanScope CS, ×20 images were taken at scan times ranging from 1.5 to 2.25 min. The total nuclear labeling index (Ki67) was generated using the Aperio ImageScope standard positive pixel algorithm. The Image Analysis software was used to calculate the percent of positive pixels (brown staining) in one large cross section from each lung.

phospho-AKT = experiment: western blot for phospho-AKT in PD study tumors; assay type: in vivo, NSG mice; conditions: TMD-231 xenograft tumors, 7 days of dosing
Protocol: (§1) To further assess preliminary efficacy and target modulation, a PD experiment was performed. […] Tumors were allowed to grow for 29 days to an average size of ~350 mm^3. […] After only 7 days of treatment, we observed a ~40% decrease in tumor volume with the combination, while tumors actually grew slightly in the face of single agent therapy, again, giving further observations of synergy (Fig. 4a). On the 7th day, the mice had plasma drawn, and then euthanized and the tumor removed. Measurement of buparlisib and WNT974 concentrations in tumor tissue confirmed that these agents were reaching the tumor (Fig. 4b). To assess molecular target modulation, RNA and protein was isolated from each of the tumors in our PD study and biomarker analysis was performed. […] (Supplementary Fig. 3a). […] Target modulation was assessed using qPCR for Axin2 (a marker of WNT974), and western blot for porcupine and phospho-Akt […] (a marker of buparlisib activity). qPCR was performed using Taqman assays (Life Technologies). Protein was isolated after 48 h of treatment in biological triplicates using radioimmunoprecipitation assay buffer and quantified with bicinchoninic acid assay (Thermo Fisher). Protein was run on bis-tris gels (Life Technologies) and transferred to polyvinylidene fluoride membrane. […] Quantification of blots was performed using ImageJ (NIH) and statistical analysis using GraphPad.

[3] = quantification of drug in resected tumors, HPLC-MS/MS; assay type: in vivo, NSG mice; conditions: NSG, mouse, tumor, 7 days once daily, average with standard deviation; for concentration at 1 h: 1 h post the last dose; for concentration at 7 h: 7 h post the last dose
Protocol: After 7 days of treatment, we observe a ~40% decrease in tumor volume. b Quantification of drug in tumors resected from mice treated in our PD study. Half of the tumors were resected at 1 h post the last dose, and the other half 7 h post the last dose. Using Highperformance liquid chromatography-mass spectrometry (HPLC-MS/MS), buparlisib and WNT974 were quantified as nanograms of drug per gram of tumor tissue (ng/g). Average values with standard deviation are presented. LOQ limit of quantitation c As TMD-231 cells have a known propensity to metastasize to the lung, we assessed the effect of the combination therapy on the growth of lung metastases.

AXIN2 RNA = experiment: qPCR for AXIN2 RNA in PD study tumors; assay type: in vivo, NSG mice; conditions: TMD-231 xenograft tumors, 7 days of dosing
Protocol: as §1

porcupine (PORCN) = experiment: RNA-seq of MDA-MB-231 cells before and after buparlisib treatment; assay type: cell-based, human; conditions: MDA-MB-231, RNA-seq before and after treatment
Protocol: RNA-sequencing for the buparlisib treated MDA-MB-231 cell line experiment was performed as follows. To enrich for the non-ribosomal RNA transcriptome, RNA samples were first depleted of ribosomal RNA using the Low Input Ribominus Kit (Life Technologies). ERCC spike-in controls (Pool 1) were introduced for all samples (Life Technologies). RNA libraries were constructed using the Ion Total RNA-Seq Kit for AB Library Builder System (Life Technologies) per manufacturer’s instructions. Libraries were barcoded using the IonXpress RNA-Seq Barcode 1–16 Kit (Life Technologies), and libraries were quantified using the Agilent TapeStation 2200 along with the DNA D1K Kit. Libraries were diluted to a concentration of 11 pM prior to templating and emulsion polymerase chain reaction (PCR) using the Ion Template OT2 200 v2 kit along with Ion OneTouch 2 instrument (Life Technologies). Templates were quantified using the IonSphere Quality Control Kit (Life Technologies). Samples were sequenced on an Ion Proton Next-Generation Sequencer using the Ion Proton PI chip and the Ion PI Sequencing 200 v2 kit (Life Technologies). Samples were sequenced using two RNA-seq libraries/samples per chip to an average of 30–40 million reads per sample. Reads were mapped to the human genome (hg19) using the STAR algorithm.[36] Aligned BAM files were then imported into Partek Genomics Suite. […]

[4] = system: porcupine (PORCN) protein; experiment: western blot for porcupine in TNBC cell lines; assay type: cell-based, human
Protocol: (§2) To further confirm the induction of porcupine after buparlisib treatment, but at the protein level, we performed western blotting for porcupine and p-AKT before and after treatment with buparlisib.
(§3) Target modulation was assessed using qPCR for Axin2 (a marker of WNT974), and western blot for porcupine and phospho-Akt Ser 473 (a marker of buparlisib activity). qPCR was performed using Taqman assays (Life Technologies). Protein was isolated after 48 h of treatment in biological triplicates using radioimmunoprecipitation assay buffer and quantified with bicinchoninic acid assay (Thermo Fisher). Protein was run on bis-tris gels (Life Technologies) and transferred to polyvinylidene fluoride membrane. Primary pAKT-Ser 473 antibody (Cell Signaling Technology, Beverly, Massachusetts), β-actin (Cell Signaling Technology), and PORCN (Abcam, Cambridge, England) was incubated overnight with subsequent 1-hour incubation with horseradish peroxidase-conjugate secondary antibody. Staining was performed using a chemiluminescent substrate (ThermoFisher). Imaging was performed using an LAS-4000 Luminescent Image Analyzer (Fujifilm, Tokyo, Japan). Quantification of blots was performed using ImageJ (NIH) and statistical analysis using GraphPad.

[5] = system: phosphorylated-AKT (p-AKT Ser 473); experiment: western blot for p-AKT in TNBC cell lines; assay type: cell-based, human; conditions: MDA-MB-231, HCC70 and HCC1143; 48 h treatment
Protocol: as §2, §3

metastatic TNBCs = system: metastatic TNBCs; set-up: method as in ref 16 = [16]; 16. Dirix, L. Avelumab (MSB0010718C), an anit-PD-L1 antibody, in patients with locally advanced or metastatic breast cancer: a phse Ib JAVELIN solid tumor trial. SABCS Annual. Meeting. Oral. Presentat; conditions: patients with metastatic TNBCs, phase Ib JAVELIN trial; cited from earlier work
advanced TNBC = system: advanced TNBC; set-up: method as in ref 17 = [17]; 17. Nanda, R. A phase Ib study of pembrolizumab (MK-3475) in patients with advanced triple- negative breast cancer. SABCS Annual. Meeting. Oral. Presentation . (2014).; conditions: phase Ib trial; cited from earlier work
[6] = 3 mg/kg, read-out: WNT974 in tumor tissue
[7] = 30 mg/kg, read-out: Buparlisib in tumor tissue

Compound: Cc1cc(-c2ncc(CC(=O)Nc3ccc(-c4cnccn4)cn3)cc2C)ccn1 [WNT974]
- mice survived to the end of the study [1]: 0%
- inhibition of its target (porcupine) (porcupine): potent inhibition
- toxicity / most common side effect in humans [2]: dysgeusia
- inhibition of tumor growth in vivo (tumor growth): significant inhibition
- lung metastases compared with the control group (TMD-231 lung metastases): small but non-significant decreases
- inhibition of phospho-AKT in tumors (phospho-AKT): not
- concentration at 1 h [3, 6]: 19.2 ± 1.11 ng/g
- concentration at 7 h [3, 6]: 8.34 ± 0.33 ng/g
- AXIN2 RNA levels in tumors (AXIN2 RNA): decreased

Compound: Nc1cc(C(F)(F)F)c(-c2cc(N3CCOCC3)nc(N3CCOCC3)n2)cn1 [buparlisib]
- PORCN over-expression after PI3K inhibition (porcupine (PORCN)): ~ 8 fold
- mice survived to the end of the study [1]: 40%
- PORCN protein, quantified western blot ([4]; HCC70, 10 x IC50 buparlisib, p-value 0.0084): significant increase
- PORCN protein, quantified western blot ([4]; HCC1143, IC50 buparlisib, p-value 0.013): significant increases
- PORCN protein, quantified western blot ([4]; MD-MB-231, IC50 buparlisib, p-value 0.0072): significant increases
- toxicity / most common side effect in humans [2]: depression, anxiety, pneumonitis, and liver toxicity
- lung metastases compared with the control group (TMD-231 lung metastases): small but non-significant decreases
- phospho-AKT after treatment [5]: potent inhibition
- inhibition of phospho-AKT in tumors (phospho-AKT): observed
- concentration at 1 h [3, 7]: 3590 ± 898 ng/g
- concentration at 7 h [3, 7]: 2960 ± 683 ng/g

Compound: avelumab: an anti-PD-L1 antibody
- overall response rate (metastatic TNBCs): 8.6%

Compound: pembrolizumab: immune checkpoint therapy tested in a phase Ib trial in advanced TNBC
- overall response rate (advanced TNBC): 18.5%
